Source: publication PMC13366236 (Acta Pharmaceutica Sinica. B, 2025)

Biological target: mTOR (Homo sapiens, UniProt P42345)
Assay: mTOR kinase inhibition, Lance Ultra assay
Assay type: biochemical
[1] = mTOR, IC50, mean ± SD of triplicate measurements

Question: How did the IC50 (mTOR IC50, text and Fig. 3A) turn out when `Nc1ccccc1/N=c1\cc(-c2ccc3c(c2)OCO3)oc2ccccc12` [Compound 4a] was run?
Answer: The IC50 was 1.5 µM.

Question: And the IC50 [1]?
Answer: Its IC50 is 1.54 ± 0.0211 µM.

Question: With `NCC(=O)Nc1ccccc1/N=c1\cc(-c2ccc3c(c2)OCO3)oc2ccccc12` [Compound 5a, (E)-2-amino-N-(2-((2-(benzo[d][1,3]dioxol-5-yl)-4H-chromen-4-ylidene)amino)phenyl)acetamide] as the compound, how does the IC50 [1] read?
Answer: The IC50 was 0.719 ± 0.0074 µM.

Question: Which IC50 [1] does the source give for `NCCC(=O)Nc1cccc(/N=c2\cc(-c3ccc4c(c3)OCO4)oc3ccccc23)c1` [Compound 5ab, (E)-3-amino-N-(3-((2-(benzo[d][1,3]dioxol-5-yl)-4H-chromen-4-ylidene)amino)phenyl)propanamide] here?
Answer: The IC50 was > 10 µM.

Question: How did the IC50 [1] turn out when `NCCC(=O)Nc1ccc(/N=c2\cc(-c3ccc4c(c3)OCO4)oc3ccccc23)cc1` [Compound 5ac, (E)-3-amino-N-(4-((2-(benzo[d][1,3]dioxol-5-yl)-4H-chromen-4-ylidene)amino)phenyl)propanamide] was run?
Answer: The IC50 was > 10 µM.

Question: With `C[C@H](N)C(=O)Nc1ccccc1/N=c1\cc(-c2ccc3c(c2)OCO3)oc2ccccc12` [Compound 5b, (S,E)-2-amino-N-(2-((2-(benzo[d][1,3]dioxol-5-yl)-4H-chromen-4-ylidene)amino)phenyl)propanamide] as the compound, how does the IC50 [1] read?
Answer: Its IC50 is 3.19 ± 0.194 µM.

Question: `N[C@@H](CO)C(=O)Nc1ccccc1/N=c1\cc(-c2ccc3c(c2)OCO3)oc2ccccc12` [Compound 5c, (S,E)-2-amino-N-(2-((2-(benzo[d][1,3]dioxol-5-yl)-4H-chromen-4-ylidene)amino)phenyl)-3-hydroxypropanamide] was tested. Which IC50 [1] did it give?
Answer: The IC50 was > 10 µM.

Question: Which IC50 [1] does the source give for `COCCC(=O)Nc1ccccc1/N=c1\cc(-c2ccc3c(c2)OCO3)oc2ccccc12` [Compound 5d, (E)-N-(2-((2-(benzo[d][1,3]dioxol-5-yl)-4H-chromen-4-ylidene)amino)phenyl)-3-methoxypropanamide] here?
Answer: Its IC50 is > 10 µM.

Question: Which IC50 [1] does the source give for `NCCC(=O)Nc1ccccc1/N=c1\cc(-c2ccc3c(c2)OCO3)oc2ccccc12` [Compound 5e, (E)-3-amino-N-(2-((2-(benzo[d][1,3]dioxol-5-yl)-4H-chromen-4-ylidene)amino)phenyl)propanamide] here?
Answer: The IC50 was 0.317 ± 0.0191 µM.

Question: For `NCCCC(=O)Nc1ccccc1/N=c1\cc(-c2ccc3c(c2)OCO3)oc2ccccc12` [Compound 5f, (E)-4-amino-N-(2-((2-(benzo[d][1,3]dioxol-5-yl)-4H-chromen-4-ylidene)amino)phenyl)butanamide], which IC50 [1] is on record?
Answer: The IC50 was 8.19 ± 1.85 µM.

Question: With `NCCCCC(=O)Nc1ccccc1/N=c1\cc(-c2ccc3c(c2)OCO3)oc2ccccc12` [Compound 5g, (E)-5-amino-N-(2-((2-(benzo[d][1,3]dioxol-5-yl)-4H-chromen-4-ylidene)amino)phenyl)pentanamide] as the compound, how does the IC50 [1] read?
Answer: The IC50 was > 10 µM.

Question: With `O=C(Nc1ccccc1/N=c1\cc(-c2ccc3c(c2)OCO3)oc2ccccc12)N1CCOCC1` [Compound 5h, (E)-N-(2-((2-(benzo[d][1,3]dioxol-5-yl)-4H-chromen-4-ylidene)amino)phenyl)morpholine-4-carboxamide] as the compound, how does the IC50 [1] read?
Answer: The IC50 was > 10 µM.

Question: How did the IC50 [1] turn out when `O=C(Nc1ccccc1/N=c1\cc(-c2ccc3c(c2)OCO3)oc2ccccc12)N1CCNCC1` [Compound 5i, (E)-N-(2-((2-(benzo[d][1,3]dioxol-5-yl)-4H-chromen-4-ylidene)amino)phenyl)piperazine-1-carboxamide] was run?
Answer: Its IC50 is 7.47 ± 0.139 µM.

Question: Which IC50 [1] does the source give for `CC(C)(C)[C@H](N)C(=O)Nc1ccccc1/N=c1\cc(-c2ccc3c(c2)OCO3)oc2ccccc12` [Compound 5j, (S,E)-2-amino-N-(2-((2-(benzo[d][1,3]dioxol-5-yl)-4H-chromen-4-ylidene)amino)phenyl)-3,3-dimethylbutanamide] here?
Answer: The IC50 was > 10 µM.

Question: How did the IC50 [1] turn out when `NCC(=O)Nc1ccccc1/N=c1\cc(-c2ccc3c(c2)OCO3)oc2c(N)cccc12` [Compound 5m, (E)-2-amino-N-(2-((2-(benzo[d][1,3]dioxol-5-yl)-8-amino-4H-chromen-4-ylidene)amino)phenyl)acetamide] was run?
Answer: Its IC50 is 6.16 ± 1.11 µM.

Question: With `NCC(=O)Nc1ccccc1/N=c1\cc(-c2ccc3c(c2)OCCO3)oc2ccccc12` [Compound 5p, (E)-2-amino-N-(2-((2-(2,3-dihydrobenzo[b][1,4]dioxin-6-yl)-4H-chromen-4-ylidene)amino)phenyl)acetamide] as the compound, how does the IC50 [1] read?
Answer: Its IC50 is 1.52 ± 0.121 µM.
